What was measured:
CDK2/CycE1 = biological target: T1, CDK2/CycE1 (Homo sapiens, UniProt P24941); experiment: ProQinase WT Profiler radiometric protein kinase assay; type: biochemical; details: non standard IC50 from 4 concentrations, kinase 1.5 nM, ATP 1 μM
T1 construct: purchased ProQinase
Experimental: (§1) Kinase inhibition profile of compound is determined by measuring residual activity values at four concentrations in singlicate in 320 wild-type protein kinase assays. The compounds are tested at 20 μM, 2 μM, 0.2 μM and 0.02 μM in singlicate. The final DMSO concentration in all reaction cocktails (including high and low controls) is 1%.
(§2) A radiometric protein kinase assay (33PANQINASE® Activity Assay, ProQinase) is used for measuring the kinase activity of the 320 protein kinases. All kinase assays are performed in 96-well FLASHPLATES™ in a 50 μL reaction volume. The reaction cocktail is pipetted in 4 steps in the following order:
(§3) All PKC assays (except the PKC-mu and the PKC-nu assay) additionally contain 1 mM CaCl2). 4 mM EDTA, 5 μg/mL Phosphatidylserine and 1 μg/mL 1,2-Dioleyl-glycerol. The CAMK1D, CAMK2A, CAMK2B, CAMK2D, CAMK2G, CAMK4, CAMKK1, CAMKK2, DAPK2, EEF2K, MYLK, MYLK2 and MYLK3 assays additionally contain 1 μg/mL Calmodulin and 0.5 mM CaCl2). The PRKG1 and PRKG2 assays additionally contain 1 μM cGMP. The DNA-PK assay additionally contained 2.5 μg/mL DNA.
(§4) The protein kinase reaction cocktails are incubated at 30° C. for 60 minutes. The reaction is stopped with 50 μL of 2% (v/v) H3PO4, plates are aspirated and washed two times with 200 μL 0.9% (w/v) NaCl. […] All protein kinase assays are performed with a BeckmanCoulter BIOMEK® 2000/SL robotic system. All protein kinases provided by ProQinase are expressed in Sf9 insect cells or in E. coli as recombinant GST-fusion proteins or His-tagged proteins, either as full-length or enzymatically active fragments. All kinases are produced from human cDNAs and purified by either GSH-affinity chromatography or immobilized metal. Affinity tags are removed from a number of kinases during purification. The purity of the protein kinases is examined by SDS-PAGE/Coomassie staining, the identity is checked by mass spectroscopy. Kinases from external vendors (CAR=Carna Biosciences Inc.; INV=Life Technologies (Invitrogen Corporation™); MIL=Merck-Millipore (Millipore Corporation™), see Table 1) are expressed, purified and quality-controlled by virtue of the vendors readings.
(§5) For each kinase, the median value of the cpm of three wells is defined as “low control” (n=3). This value reflects unspecific binding of radioactivity to the plate in the absence of a protein kinase but in the presence of the substrate. […] The difference between high and low control of each enzyme is taken as 100% activity. As part of the data evaluation, the low control of each kinase is subtracted from the high control value as well as from their corresponding “compound values”. The residual activity (in %) for each compound well is calculated by using the following formula: Res. Activity (%)=100×[(signal of compound−low control)/(high control−low control)]. Non Standard IC50s are calculated using a customized excel spreadsheet in conjunction with XLFit Add-in. Due to the low number of data points, (4) XL-Fit calculates a non standard IC50 using a four parametric equation where three parameters are locked to fixed values.
(§6) A: Minimum value of activity, Also known as Bottom. Fixed to 0 B: Maximum value of activity, Also known as Top. Fixed to 100 C: Inflexion point of the curve D: Hill Slope. Fixed to 1 Y: The dependent variable (i.e. what you measure as the signal) X: The independent variable (i.e. what you control, such as, dose, concentration, etc.)
(§7) The way to calculate the Non Standard IC50 is to assign random values to C parameter and repeat it iteratively. The algorithm then measures the differences in the sum of the residuals squared and will look for successive consecutive iterations where the change in the residuals is converging.

CDK7/CycH/MAT1 = biological target: T2, CDK7/CycH/MAT1 (Homo sapiens, UniProt P50613); experiment: as above; type: biochemical; details: non standard IC50 from 4 concentrations, kinase 3.3 nM, ATP 3 μM
T2 construct: purchased ProQinase
T2 sequence (P50613 whole entry): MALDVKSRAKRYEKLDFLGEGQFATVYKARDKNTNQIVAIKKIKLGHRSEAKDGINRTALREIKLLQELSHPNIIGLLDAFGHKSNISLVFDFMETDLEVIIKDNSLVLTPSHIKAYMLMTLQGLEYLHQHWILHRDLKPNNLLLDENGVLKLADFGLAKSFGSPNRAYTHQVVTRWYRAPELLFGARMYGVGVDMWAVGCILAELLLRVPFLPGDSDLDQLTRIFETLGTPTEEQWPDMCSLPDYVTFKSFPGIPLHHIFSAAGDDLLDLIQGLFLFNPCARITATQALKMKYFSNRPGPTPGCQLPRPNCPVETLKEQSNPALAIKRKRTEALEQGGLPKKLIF
T2 sequence (P51946 whole entry partner): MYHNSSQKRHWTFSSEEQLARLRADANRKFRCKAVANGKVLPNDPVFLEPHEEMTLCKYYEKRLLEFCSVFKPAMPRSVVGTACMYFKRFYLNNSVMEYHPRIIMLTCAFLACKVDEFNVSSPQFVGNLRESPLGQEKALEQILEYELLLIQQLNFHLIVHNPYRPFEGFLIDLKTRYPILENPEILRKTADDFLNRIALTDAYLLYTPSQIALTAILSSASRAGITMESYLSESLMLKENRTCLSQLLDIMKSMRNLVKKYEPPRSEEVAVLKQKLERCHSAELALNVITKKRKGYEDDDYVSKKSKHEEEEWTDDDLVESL
T2 sequence (P51948 whole entry partner): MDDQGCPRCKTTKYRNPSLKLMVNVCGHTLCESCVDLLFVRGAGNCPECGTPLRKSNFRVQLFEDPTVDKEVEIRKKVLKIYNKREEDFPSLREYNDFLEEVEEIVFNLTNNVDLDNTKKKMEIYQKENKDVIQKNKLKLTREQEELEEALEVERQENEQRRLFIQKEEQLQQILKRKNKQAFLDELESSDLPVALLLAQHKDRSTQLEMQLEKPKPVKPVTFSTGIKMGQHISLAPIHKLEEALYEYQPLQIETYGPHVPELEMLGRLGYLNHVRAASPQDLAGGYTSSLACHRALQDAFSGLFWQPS
Experimental: as §1, §2, §3, §4, §5, §6, §7

CDK8/CycC = biological target: T3, CDK8/CycC (Homo sapiens, UniProt P49336); experiment: as above; type: biochemical; details: non standard IC50 from 4 concentrations, kinase 8.3 nM, ATP 1 μM
T3 construct: purchased ProQinase
T3 sequence (P49336 whole entry): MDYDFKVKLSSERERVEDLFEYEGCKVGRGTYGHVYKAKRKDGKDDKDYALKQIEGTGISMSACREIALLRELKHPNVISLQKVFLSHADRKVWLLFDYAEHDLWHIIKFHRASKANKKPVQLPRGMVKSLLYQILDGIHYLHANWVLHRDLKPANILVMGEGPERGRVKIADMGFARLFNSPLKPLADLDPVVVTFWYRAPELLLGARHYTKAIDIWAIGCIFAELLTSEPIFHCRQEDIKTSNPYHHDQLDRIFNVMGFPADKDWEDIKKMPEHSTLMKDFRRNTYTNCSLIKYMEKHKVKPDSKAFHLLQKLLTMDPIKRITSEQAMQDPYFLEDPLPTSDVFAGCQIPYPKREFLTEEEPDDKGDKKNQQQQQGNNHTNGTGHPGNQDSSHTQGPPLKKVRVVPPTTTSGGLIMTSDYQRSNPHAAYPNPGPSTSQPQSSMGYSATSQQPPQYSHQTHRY
T3 sequence (P24863 whole entry partner): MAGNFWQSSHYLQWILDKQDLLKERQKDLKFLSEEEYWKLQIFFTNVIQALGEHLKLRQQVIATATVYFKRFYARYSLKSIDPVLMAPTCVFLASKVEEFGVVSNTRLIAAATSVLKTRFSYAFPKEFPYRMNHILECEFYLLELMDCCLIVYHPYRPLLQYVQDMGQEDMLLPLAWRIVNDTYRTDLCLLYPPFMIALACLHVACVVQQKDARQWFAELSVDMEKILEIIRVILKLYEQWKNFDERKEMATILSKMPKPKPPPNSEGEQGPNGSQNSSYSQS
Experimental: as §1, §2, §3, §4, §5, §6, §7

CDK9/CycT1 = biological target: T4, CDK9/CycT1 (Homo sapiens, UniProt P50750); experiment: as above; type: biochemical; details: non standard IC50 from 4 concentrations, kinase 2.2 nM, ATP 1 μM
T4 construct: purchased ProQinase
T4 sequence (P50750 whole entry): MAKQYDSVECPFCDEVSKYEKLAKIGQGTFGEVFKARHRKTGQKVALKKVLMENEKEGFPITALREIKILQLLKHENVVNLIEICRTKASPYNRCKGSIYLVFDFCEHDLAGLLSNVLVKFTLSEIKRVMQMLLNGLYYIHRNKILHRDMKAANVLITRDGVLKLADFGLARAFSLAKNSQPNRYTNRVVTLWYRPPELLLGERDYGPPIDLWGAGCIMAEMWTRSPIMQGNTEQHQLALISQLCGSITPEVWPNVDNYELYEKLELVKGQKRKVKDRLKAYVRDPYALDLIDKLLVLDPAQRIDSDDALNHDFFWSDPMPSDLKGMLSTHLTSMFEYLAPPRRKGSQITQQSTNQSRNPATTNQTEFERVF
T4 sequence (O60563 whole entry partner): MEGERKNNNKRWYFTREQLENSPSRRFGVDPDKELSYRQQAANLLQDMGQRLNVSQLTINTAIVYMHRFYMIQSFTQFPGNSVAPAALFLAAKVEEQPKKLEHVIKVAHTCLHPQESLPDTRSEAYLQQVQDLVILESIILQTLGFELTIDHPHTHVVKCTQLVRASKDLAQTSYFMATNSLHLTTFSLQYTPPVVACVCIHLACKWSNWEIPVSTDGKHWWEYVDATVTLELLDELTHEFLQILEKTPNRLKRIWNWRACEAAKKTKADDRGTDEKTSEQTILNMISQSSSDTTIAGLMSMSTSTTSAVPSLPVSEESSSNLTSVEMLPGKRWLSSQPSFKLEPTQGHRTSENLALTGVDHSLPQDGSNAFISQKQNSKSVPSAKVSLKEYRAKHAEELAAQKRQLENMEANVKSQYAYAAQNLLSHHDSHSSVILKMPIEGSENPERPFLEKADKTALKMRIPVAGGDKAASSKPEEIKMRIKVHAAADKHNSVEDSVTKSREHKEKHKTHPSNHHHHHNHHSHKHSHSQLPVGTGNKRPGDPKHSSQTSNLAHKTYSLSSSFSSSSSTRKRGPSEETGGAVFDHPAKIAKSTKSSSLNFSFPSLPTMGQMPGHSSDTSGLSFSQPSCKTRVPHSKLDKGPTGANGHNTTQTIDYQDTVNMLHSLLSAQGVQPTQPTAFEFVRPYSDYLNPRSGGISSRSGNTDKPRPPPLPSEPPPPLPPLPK
Experimental: as §1, §2, §3, §4, §5, §6, §7

CDK1/CycB1 = biological target: T5, CDK1/CycB1 (Homo sapiens, UniProt P06493); experiment: as above; type: biochemical; details: non standard IC50 from 4 concentrations, kinase 7 nM, ATP 1 μM
T5 construct: purchased ProQinase
T5 sequence (P06493 whole entry): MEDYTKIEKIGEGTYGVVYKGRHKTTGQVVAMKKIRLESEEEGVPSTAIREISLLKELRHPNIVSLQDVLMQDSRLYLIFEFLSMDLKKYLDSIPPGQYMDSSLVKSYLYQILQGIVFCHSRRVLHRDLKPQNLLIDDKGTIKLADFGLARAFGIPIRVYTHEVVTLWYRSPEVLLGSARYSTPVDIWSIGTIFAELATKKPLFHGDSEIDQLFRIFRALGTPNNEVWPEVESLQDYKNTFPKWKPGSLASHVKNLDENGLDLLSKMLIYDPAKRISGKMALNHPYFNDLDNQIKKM
T5 sequence (P14635 whole entry partner): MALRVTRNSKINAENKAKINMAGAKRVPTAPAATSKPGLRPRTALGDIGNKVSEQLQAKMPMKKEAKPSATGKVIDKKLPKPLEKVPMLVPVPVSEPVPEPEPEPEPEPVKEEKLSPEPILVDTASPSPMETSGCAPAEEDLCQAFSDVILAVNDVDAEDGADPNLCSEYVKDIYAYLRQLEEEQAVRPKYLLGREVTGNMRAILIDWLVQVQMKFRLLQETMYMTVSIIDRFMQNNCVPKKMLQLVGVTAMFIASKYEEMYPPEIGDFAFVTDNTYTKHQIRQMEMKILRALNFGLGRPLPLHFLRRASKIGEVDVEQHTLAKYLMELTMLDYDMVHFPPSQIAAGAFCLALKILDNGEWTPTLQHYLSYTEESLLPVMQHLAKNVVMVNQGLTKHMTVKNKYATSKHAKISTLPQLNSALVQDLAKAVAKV
Experimental: as §1, §2, §3, §4, §5, §6, §7

CDK19/CycC = biological target: T6, CDK19/CycC (Homo sapiens, UniProt Q9BWU1); experiment: as above; type: biochemical; details: non standard IC50 from 4 concentrations, kinase 30.9 nM, ATP 3 μM
T6 construct: purchased ProQinase
T6 sequence (Q9BWU1 whole entry): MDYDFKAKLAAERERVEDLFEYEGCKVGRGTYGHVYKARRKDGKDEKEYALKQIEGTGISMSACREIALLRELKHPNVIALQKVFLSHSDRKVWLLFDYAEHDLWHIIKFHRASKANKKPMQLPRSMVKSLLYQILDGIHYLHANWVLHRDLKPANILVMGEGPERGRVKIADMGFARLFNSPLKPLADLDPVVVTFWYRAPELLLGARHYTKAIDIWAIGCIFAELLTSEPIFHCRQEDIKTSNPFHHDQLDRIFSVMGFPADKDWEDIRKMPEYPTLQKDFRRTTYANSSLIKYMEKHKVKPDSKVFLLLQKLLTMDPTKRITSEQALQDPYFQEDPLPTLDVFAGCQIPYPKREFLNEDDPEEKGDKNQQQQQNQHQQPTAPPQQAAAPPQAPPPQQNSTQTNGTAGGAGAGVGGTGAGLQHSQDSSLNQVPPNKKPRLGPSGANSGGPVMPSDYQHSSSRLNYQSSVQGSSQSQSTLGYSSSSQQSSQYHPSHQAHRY
T6 sequence (P24863 whole entry partner): as the sequence (P24863 whole entry partner) above
Experimental: as §1, §2, §3, §4, §5, §6, §7

CDK9/cyclinT1 = CDK9/cyclinT1 (Homo sapiens, UniProt P50750); experiment: Assay for inhibition of CDK9/CyclinT1 kinase activity (radiolabel filter binding)
CDK9/cyclinT1, sequence (P50750 whole entry): as the sequence (P50750 whole entry) above
CDK9/cyclinT1, sequence (O60563 whole entry partner): as the sequence (O60563 whole entry partner) above
Experimental: The IC50 determination for CDK7 and CDK9 are determined as follows.
The IC50 activity of the inhibitor is determined using radiolabel filter binding (FB) assays using the purified human recombinant enzyme in the presence of ATP and peptide substrate. The ATP concentrations chosen are at or near the enzyme Km for ATP. Reactions are carried out in 96 well polystyrene plates in a final volume of 25 μL per well. 5 μL of test compound in 20% DMSO, 10 μL of substrate solution (ATP//[^33P]ATP and CDK7/9 tide) and 10 μL of enzyme solution are mixed. […] The enzyme solution is prepared for a final concentration of 7.5 nM CDK9/cyclinT1 enzyme [Proqinase 0371-0345-1 (Lot 004)] diluted in kinase buffer. Test compounds are serially diluted 1:3 in 20% DMSO to create a 10 point curve at a starting concentration of 2 μM. 20% DMSO buffer alone without test compound is employed as high control (full activity in the absence of any inhibitor), 500 mM EDTA is used to determine the level of background in the absence of enzyme activity (low control). After mixing 5 μL of compounds with 10 μL of enzyme solution the plate is incubated for 0 or 180 minutes at 22° C. After that time the reaction is initiated by the addition of 10 μL substrate solution and incubated for 60 minutes at 22° C. […] 80 μL of MICROSCINT™ is added to each well and read on a scintillation counter after an hour. […]

Question: How did the IC50 (CDK2/CycE1) turn out when `Cc1cc(NC2CCN(C(=O)O[C@H]3CCN(C(=O)/C=C/CN(C)C)C3)CC2)n2ncc(C(C)C)c2n1` [Example 1, [(3S)-1-[(E)-4-(dimethylamino)but-2-enoyl]pyrrolidin-3-yl] 4-[(3-isopropyl-5-methyl-pyrazolo[1,5-a]pyrimidin-7-yl)amino]piperidine-1-carboxylate] was run?
Answer: Its IC50 is at least 20 µM.

Question: What about the IC50 (CDK7/CycH/MAT1) of the same compound?
Answer: Its IC50 is 0.0928 µM.

Question: And the IC50 (CDK8/CycC)?
Answer: The IC50 was 10.9 µM.

Question: And the IC50 (CDK9/CycT1)?
Answer: The IC50 was 6.32 µM.

Question: What about the IC50 (CDK1/CycB1) of the same compound?
Answer: The IC50 was at least 20 µM.

Question: What about the IC50 (CDK19/CycC) of the same compound?
Answer: Its IC50 is 7.41 µM.

Question: What about the IC50 (CDK9/cyclinT1) of the same compound?
Answer: The IC50 was 5.9 µM.

— patent US20210032257A1, “(E)-1-(4-(DIMETHYLAMINO)BUT-2-ENOYL)PYRROLIDIN-3-YL 4-((3-ISOPROPYL-5-METHYLPYRAZOLO[1,5-A]PYRIMIDIN-7-YL)AMINO)PIPERIDINE-1-CARBOXYLATE FOR INHIBITING CDK7” (Eli Lilly and Company, priority 2017, published 2021)
